Laboratory results as given in patent US20030153512A1 (priority 2000, published 2003).
≈ marks a conversion by molar mass, not a printed value.

Key:
[1] = system: Raji cells; test: Uptake in Raji cells by fluorescence microscopy; format: cell-based
Procedure: These studies were carried out by means of fluorescence microscopy, since curcumin and its two derivatives show fluorescence. […] Aliquots of the cells in medium were placed by pipetting onto poly-L-lysin-coated slides (to adhere the cells); the cells were covered with a cover glass after 30 minutes and stimulated by an appropriate filter using U.V. light.

[2] = Water solubility of saturated solutions in argon-saturated water, content by HPLC; format: physicochemical; conditions: saturated solution at room temperature in argon-saturated water, HPLC UV 420 nm
Procedure: HPLC conditions: column lichrospher-100-RP18-5 μ, 125×4 mm Running agent/gradient/flow Acetonitrile/acetic acid 0.2 and/or 2%, 1 ml/min Detection: UV 420 nm
The relevant straight calibration line was respectively determined with the individual compounds. […] The content of 20 μl each of the saturated solutions was determined by means of HPLC.

[3] = system: Epstein-Barr virus; test: Inhibition of EBV induction (reactivation) in Raji-DR-LUC cells, luciferase activity; format: cell-based; conditions: 50,000 Raji-DR cells, 10 nM TPA, 72 hours
Procedure: The current studies were carried out with Raji-DR-LUC cells.
For this purpose, 50,000 Raji-DR cells were treated with 10 nM TPA minus/plus inhibitor (various concentrations) in a volume of 100 μl in a CO2 incubator for 72 hours. Following washing with PBS, the cells are lyzed; the luciferase activity is determined in luciferase buffer (20 mM tricins, 8 mM MgSO4, 0.1 mM EDTA, 30 mM DTE, pH 7.8) with luciferin/CoA ATP as a substrate in an always equal amount of cell lyzate. The induced luciferase activity per μg protein is determined in comparison with a calibration curve having an authentic luciferase. Inhibiting agents of EBV induction result in an induction of luciferase reduced as compared with the TPA control.

[4] = system: granulocytes (PMN) from human blood; test: Inhibition of the TPA-stimulated "oxygen burst" of granulocytes (chemiluminescence); format: cell-based; conditions: 100,000 granulocytes, TPA 100 nM, luminol and/or lucigenin, CL integral over one hour
Procedure: These studies were carried out by means of the inhibition of the “oxygen burst” of granulocytes (PMN) from human blood according to Hergenhahn et al. (1991) J. Cancer Res. Clin. Oncol. 117, 385-395, and Bouvier, Hergenhahn et al. (1993) Carcinogenesis 14, 1573-8. The granulocyte fraction from heparinized blood is enriched by agglutination of the erythrocytes with 2.5% dextran in PBS (30 min. at room temperature), freed from residual erythrocytes by lysis and used after washing with PBS in the test. In a total volume of 1 ml, 100,000 granulocytes each are admixed with luminol and/or lucigenin and heated to 37° C. in the chemiluminescence (CL) measuring device Biolumat LB 953 (EG&G Berthold, Wildbad); the cells are then stimulated with TPA at a final concentration of 100 nM. The CL curves are tracked for one hour; the integral underneath the curve is used as a standard for chemiluminescence.
When inhibitory substances are used, a concentration-dependent inhibitory effect results which manifests itself as a late rise, reduced amplitude of the maximum and partially as an early drop of the peak.

[5] = system: cell cultures; conditions: described in the literature; cited from earlier work
[6] = Raji cells, 3 hours, 15 μM, image analysis

Compound	fluorescence of cells (cell-associated compound) [1, 6]	water solubility [2] [µg/mL]	EBV inhibitory effect, rank order in series [3]	antioxidative effect, rank order in series [4]	factor by which cell fluorescence was reduced (versus curcumin) [1, 6]	time of maximum uptake in Raji cells ([1]; preliminary tests) [h]	solubility ([2]; thermodynamic from solid) [µg/mL]	concentration in the medium at which chemopreventive effects occurred [5]
8,8′-bis-(B-D-glucopyranosyl)-curcumin [Curcumin diglucoside]	just visible	> 10700	curcumin>curcumin monoglucoside>curcumin diglucoside	curcumin >>curcumin monoglucoside curcumin diglucoside	–	–	–	–
8-(β-D-glucopyranosyl)curcumin [Curcumin monoglucoside]	–	13.2 ± 0.9	curcumin>curcumin monoglucoside>curcumin diglucoside	curcumin >>curcumin monoglucoside curcumin diglucoside	10-100	–	–	–
COc1cc(C=CC(=O)CC(=O)C=Cc2ccc(O)c(OC)c2)ccc1O [Curcumin, 1,7-bis(4-hydroxy-3-methoxyphenyl)-1,6-heptadiene-3,5-dione, reference compound]	very bright fluorescence	–	curcumin>curcumin monoglucoside>curcumin diglucoside	curcumin >>curcumin monoglucoside curcumin diglucoside	–	2 to 3	4 (≈ 10.9 µM)	at least 10 μM
